Assay results as given in patent US7709537B1, “Food materials useful in preventing and ameliorating metabolic bone diseases and preventives/remedies for metabolic bone diseases comprising these materials” (Meiji Dairiese Corporation, priority 1999, dated 2010).

Legend:
[1] = system: human osteoblasts (SaM-1); assay: Mineralization (Ca and P accumulation in extracellular matrices) of human osteoblasts; format: cell-based; details: SaM-1 cells, 32 days, 2 mM glycerophosphoric acid
Protocol: Employed were cultured human osteoblasts (SaM-1), which had been established from the periosteum of an ulna of a person obtained during a surgical operation of a fractured bone. Those SaM-1 cells were equipped with all the characteristics of osteoblasts (Koshihara, Y. et al.: In Vitro Cell, Dev. Biol., 25, 37-43, 1989). SaM-1 cells are known to promote mineralization in the presence of 2 mM a-glycerophosphoric acid, depending upon the concentration of 1α,25(OH)2D3.
SaM-1 cells of 18 PDL (population doubling level) were seeded to a 12-well plate, and cultured to a confluent state. a-Glycerophosphoric acid, a mineralization promoter, was then added to 2 mM. […]
Ca in each extracellular matrix was quantitated by using a kit (“Calcium C Test Wako”) based on the o-cresolphthalein complexone method (OCPC method).
After completion of the culture, the cells were washed with Hanks' solution. […] Five minutes later, the reaction mixtures were measured by an absorptiometer (570 nm)(FIG. 6).
P in each extracellular matrix was quantitated by the method proposed by Chen et al. (Chen, P. S. et al.: Anal. Chem., 28, 1756-1758, 1956).
0.84% Ammonium molybdate, 2 N sulfuric acid and 10% ascorbic acid were mixed at 3:3:1 (volume ratio) to prepare a reaction reagent. The extracts (100 μL) obtained in the above-described Ca quantitation were each diluted with distilled water (800 μL). […]

[2] = system: stromal cell line ST-2 derived from mouse bone marrow; assay: ALP activity of ST-2 cells cultured with ACNQ (osteogenesis promoting effect); format: cell-based
Protocol: Cells of the stromal cell line ST-2 derived from mouse bone marrow (Udagawa, N. et al.: Endocrinology 125, 1805-1813, 1989) were used as osteoblasts. These cells have similar osteoclast differentiation inducing ability for bone marrow cells as osteoblasts.
The cells were seeded in the individual wells of a 96-well plate at 4×10^4 cells/well, and cultured for 1 day in RPMI 1640 medium which contained 10% FBS, penicillin G and streptomycin.
The medium was replaced by the same medium which contained ACNQ, and cultured further for 3 days. After the culture, the ALP activity of cells was assayed.
(§1) The cells were washed with PBS, and then immobilized with ethanol for 1 minute. An enzyme reaction solution (a buffer containing p-nitrophenyl phosphate, 0.1 M glycine, 1 mM MgCl2 and 0.1 mM ZnCl2 as substrates, pH 10.5) of 37° C. was added to have the cells reacted at 37° C. for 30 minutes. An equiamount of 0.05 N NaOH was added to quench the reaction. ALP activity was expressed in terms of units, with 1 unit representing the amount of p-nitrophenol formed in a minute per mg-protein as measured in terms of absorbance at 415 nm). Protein contents were determined using a protein assay kit (product of Bio-Rad Lab.). Further, the cytotoxicity of ACNQ was measured by MTT assay (FIG. 5).

[3] = system: stromal cell line ST-2 derived from mouse bone marrow; assay: Cytotoxicity of ACNQ by MTT assay in ST-2 cells; format: cell-based; details: at the peak concentration of ALP activity, 1 μg/mL (FIG. 5)
Protocol: as §1

[4] = system: human osteoblasts (SaM-1); assay: Cytotoxicity by free LDH in culture supernatant of SaM-1 cells; format: cell-based; details: 32nd day of culture, 10^−5 M to 10^−7 M (FIG. 8)
Protocol: Using “LDH-Cytotoxic Test Wako” (cytotoxicity assay kit), free LDH in each culture supernatant was measured to investigate the cytotoxicity of ACNQ. Culture supernatants on the 32nd day of culture were sampled, and subsequent to a staining reaction, their LDH concentrations were measured by using a microplate reader (540 nm).

[5] = system: human bone marrow cells (monocytes); assay: Formation of TRAP-positive polykaryocytes in culture of human bone marrow monocytes; format: cell-based
Protocol: (1) Human bone marrow cells obtained during an artificial caput replacement operation were subjected to density-gradient centrifugation to collect monocytes. Those monocytes were seeded into α-MEM medium, which contained 20% equine serum and 10^−8 M 1α,25(OH)2D3, to give 8×10^5 cells/well (079 cm^2), and were then cultured for […]. The cultures were each replaced twice a week by a half of its volume each time. Addition of ACNQ was conducted at the beginning.
On the 16th day of culture, the cultures were treated with pronase and EDTA to eliminate stromal cells. On the following day, the cells were washed with PBS(−) and then immobilized with formalin. The formalin-immobilized cells were subjected to TRAP staining, and the TRAP-positive polykaryocyte counts of the respective wells were determined. Vitamin K1 was used as a control.

[6] = system: primary osteoblast-like interstitial cells and bone marrow cells of ddY mice; assay: Osteoclast formation in co-culture of mouse osteoblast-like interstitial cells and bone marrow cells; format: cell-based
Description: (2) The calvaria of ddY mice newborn were enzymatically treated (with a mixed solution of collagenase and disperse) to obtain primary osteoblast-like interstitial cells. On the other hand, bone marrow cells were isolated from the femurs and shinbones of the same strain mice (males of 6 to 9 weeks of age). The primary osteoblast-like interstitial cells and bone marrow cells were co-cultured in the presence of ACNQ to investigate differentiation induction effect of ACNQ on osteoclasts.
Using αMEM added with 10% FBS, a culture which contained the primary osteoblast-like interstitial cells and the bone marrow cells at a cell count ratio of about 1:20 was co-cultured in the presence of 10^−8 M to 10^−10 M 1α,25(OH)2D3 for 6 to 8 days. During the culture period, ACNQ solutions of various concentrations and as a control for comparison, vitamin K2 which is known to inhibit the formation of osteoclasts, were added, respectively, upon culture medium replacement (replaced by a half of the volume of the culture medium; replaced on every third days).
Cells, which were positive to TRAP staining and internally contained 3 or more nuclei per cell, were collected as differentiated osteoclasts. […]

[7] = system: osteoclast-like polykaryocytes from ddY mouse co-culture; assay: Formation of bone resorption lacunae on a piece of dentinum by osteoclasts; format: cell-based; details: 24 hours on dentinum, even at the highest concentration, 7.5 μg/mL (FIG. 11)
Protocol: Investigated was the effect of ACNQ on the formation of bone resorption lacunae on a piece of dentinum by osteoclasts.
As in the test (2) of Test 4, a culture (20 mL) containing primary osteoblast-like interstitial cells, which had been derived from the calvariae of ddY mice newborn, and bone marrow cells, which had been isolated from the femurs and shinbones of the same strain mice (males of 6 to 9 weeks of age), at a ratio of 1×10^6 cells to 1×10^7 cells in a 100 mm dish was co-cultured for 6 to 8 days on a collagen gel in αMEM medium in which 10% FEB and 10^−8 M 1α,25(OH)2D3 had been added. Medium replacement was conducted on every third days. After the culture, a 0.2% collagenase solution was added. The thus-obtained mixture was gently shaken at 37° C. for 20 minutes to digest the collagen gel, and differentiation-induced osteoclast-like polykaryocytes were collected. The count of osteoclasts obtained by this method was at most 4×10^4 cells/100 mm-dish.
(§2) Those osteoclast-like polykaryocytes were prepared to 4×10^3 cells/mL with αMEM medium containing 10% FBS, seeded at 100 μL/well into wells (96 wells) in which pieces of dentinum were placed, respectively, and cultured at 37° C. for 2 hours. […] After the staining solution was removed, resorption lacunae formed in the surface of each piece of dentinum as a result of binging by […] were counted under a microscope. […]

[8] = system: osteoclasts from ddY mouse co-culture; assay: Cytotoxicity against osteoclasts on a piece of dentinum; format: cell-based; details: differentiated and matured mouse osteoclasts (FIG. 11)
Protocol: A still further investigation was also conducted on TRAP-positive cells formed by a co-culture system of primary osteoblast-like interstitial cells derived from the calvaria of a mouse newborn and mouse bone marrow cells. […] Effects of ACNQ on the activity of a bone re sorbing system were then investigated. Measured were the formation of resorption lacunae and cytotoxicity on a piece of dentinum in an osteoclast forming system by co-culture of primary osteoblast-like interstitial cells derived from the calvaria of the above mouse newborn and mouse bone marrow cells.
as §2, with “hours. After the culture, the individual cultures were transferred to 24 wells or 48 wells in which a culture medium was placed at 0.5 to 1.5 mL/well. At the same time, ACNQ solutions of various concentrations were added to the wells, respectively, followed by culture at 37° C. for 24 hours.” for “hours.”

[9] = system: osteoclast formation; details: side chains of vitamin K1 or K2; Hara, K. et al.: Bone, 16, 179-184, 1995; cited from earlier work

C=C1/C(=C\C=C2/CCC[C@]3(C)[C@@H]([C@H](C)CCCC(C)(C)O)CC[C@@H]23)C[C@@H](O)C[C@@H]1O [1α,25(OH)2D3, reference compound]
mineralization (Ca and P accumulation) ([1]; 10^−8 M to 10^−9 M (FIGS. 6 and 7)): promote mineralization concentration-dependently

NC1=C(C(=O)O)C(=O)c2ccccc2C1=O [ACNQ, 2-amino-3-carboxy-1,4-naphthoquinone]
ACNQ concentration at which ALP activity reached the peak ([2]; 3 days culture (FIG. 4)): ~1 µg/mL | ALP activity of the cells ([2]; 3 days culture, up to an ACNQ concentration of 1 μg/mL (FIG. 4)): increased concentration-dependently | cytotoxicity (MTT assay, viable cell count) [3]: cytotoxicity was not observed at all | mineralization (Ca and P accumulation) ([1]; 10^−5 M to 10^−7 M (FIGS. 6 and 7)): promote mineralization concentration-dependently | cytotoxicity (free LDH in culture supernatant) [4]: not determined to show cytotoxicity | formation of osteoclasts (TRAP-positive polykaryocytes) ([5]; human monocytes with 10^−8 M 1α,25(OH)2D3, ACNQ 10^−8 M to 10^−5 M (FIG. 9)): inhibited the formation of osteoclasts concentration-dependently | inhibitory effect on osteoclast formation compared with vitamin K1 ([5]; human monocytes, same concentration as vitamin K1 (FIG. 9)): significantly stronger than that available from vitamin K1 | differentiation and maturation of monocytes into osteoclasts (TRAP-positive cells with 3 or more nuclei) ([6]; mouse co-culture with 1α,25(OH)2D3, 6 to 8 days, ACNQ 0.15 to 15 μg/mL (FIG. 10)): inhibited differentiation and maturation | formation of osteoclasts ([6]; mouse co-culture, ACNQ at 1.5 μg/mL and higher (FIG. 10)): considerably inhibited the formation of osteoclasts | bone resorbing activity of osteoclasts (resorption lacunus counts) [7]: did not lower the bone resorbing activity of osteoclasts | cytotoxicity against osteoclasts [8]: does not exhibit cytotoxicity against osteoclasts

C/C(=C\CO)CCC[C@H](C)CCC[C@H](C)CCCC(C)C [phytol]
osteoclast-formation inhibitory effect [9]: weak in the inhibitory effect
